In data set [1] the target is T1, 5HT2B site (Homo sapiens, UniProt P41595).
T1 construct: Cerep (CRO)
Briefly: CEREP selectivity screen, binding assay. The following applies: read-out: highest inhibition, 5HT2B site. As to the method:
The CEREP selectivity screen was performed on the following targets:
A1, A2A, A3, α1, α2, β1, β2, AT1, AT2, BZD central, BZD periph, BB, B2, CGRP, CB1, CCK1, CCK2, D1, D2S, D3, D4.4, D5, ETA, ETB, GABA, GAL1, GAL2, PDGF, CXCR2, CCR1, TNF- α, H1, H2, MC4, MT1, M1, M2, M3, M4, M5, NK1, NK2, NK3,Y1, Y2, NTS1(NT1), δ2, κ, µ, NOP(ORL1) , PAC1(PACAP), PPARγ, PCP, EP2, EP4, IP(PGI2,), P2X, P2Y,5-HT1A, 5-HT1B, 5-HT2A, 5-HT2B, 5-HT2C, 5-HT3, 5-HT5A, 5-HT6, 5-HT7, σ, sst, GR, ER, VPAC1(VIP1), V1a, Ca^2+ channel (L), KV channel, KV channel, SKCa channel, Na^+ channel, Cl^- channel, norepinephrine transporter. dopamine transporter, 5-HT transporter.

The test system of data set [2] is Salmonella Typhimurium (TA98, TA100, and TA1535). The experiment in a line: Bacterial cytotoxicity. The data set is classed as cell-based. Conditions: up to 100 μM; presence and absence of S9. From the text: The results for cytotoxicity are expressed as percent of control growth (OD650). A compound with growth less than 60% of control is flagged and considered to be cytotoxic.

The target in data set [3] is T2, Cyp 450 2C9 (Homo sapiens, UniProt P11712).
T2 construct: tissue Cyprotex (CRO); host or cells: human liver microsomes
T2 sequence (P11712 whole entry): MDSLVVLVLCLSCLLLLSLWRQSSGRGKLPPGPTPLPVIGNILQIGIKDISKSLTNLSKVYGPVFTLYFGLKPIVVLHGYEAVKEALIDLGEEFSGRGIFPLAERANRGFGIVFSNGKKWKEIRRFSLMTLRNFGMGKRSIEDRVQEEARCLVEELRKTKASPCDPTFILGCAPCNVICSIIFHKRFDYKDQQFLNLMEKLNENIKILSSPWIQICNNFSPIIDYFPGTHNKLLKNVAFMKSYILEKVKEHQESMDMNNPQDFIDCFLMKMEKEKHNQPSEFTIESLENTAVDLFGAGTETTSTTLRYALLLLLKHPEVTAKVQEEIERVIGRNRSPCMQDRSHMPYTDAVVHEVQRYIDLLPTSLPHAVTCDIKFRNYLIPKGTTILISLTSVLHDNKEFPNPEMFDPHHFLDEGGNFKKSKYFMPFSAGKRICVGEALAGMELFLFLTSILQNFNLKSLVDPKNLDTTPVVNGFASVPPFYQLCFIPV
Briefly: Cytochrome P450 inhibition in human liver microsomes. The data set is classed as in vitro ADME. The following applies: human liver microsomes. As to the method:
(§1) The five main cytochrome P450 isoforms (CYP1A, CYP2C9, CYP2C19, CYP2D6 and CYP3A4) were investigated in the P450 inhibition assay. […] At the end of the incubation, the formation of the metabolite was monitored by LC-MS/MS (or fluorescence in the case of CYP1A) at each of the test compound concentrations.

The target of data set [4] is T3, Cyp 450 2D6 (Homo sapiens, UniProt P10635).
T3 construct: tissue Cyprotex (CRO); host or cells: human liver microsomes
T3 sequence (P10635 whole entry): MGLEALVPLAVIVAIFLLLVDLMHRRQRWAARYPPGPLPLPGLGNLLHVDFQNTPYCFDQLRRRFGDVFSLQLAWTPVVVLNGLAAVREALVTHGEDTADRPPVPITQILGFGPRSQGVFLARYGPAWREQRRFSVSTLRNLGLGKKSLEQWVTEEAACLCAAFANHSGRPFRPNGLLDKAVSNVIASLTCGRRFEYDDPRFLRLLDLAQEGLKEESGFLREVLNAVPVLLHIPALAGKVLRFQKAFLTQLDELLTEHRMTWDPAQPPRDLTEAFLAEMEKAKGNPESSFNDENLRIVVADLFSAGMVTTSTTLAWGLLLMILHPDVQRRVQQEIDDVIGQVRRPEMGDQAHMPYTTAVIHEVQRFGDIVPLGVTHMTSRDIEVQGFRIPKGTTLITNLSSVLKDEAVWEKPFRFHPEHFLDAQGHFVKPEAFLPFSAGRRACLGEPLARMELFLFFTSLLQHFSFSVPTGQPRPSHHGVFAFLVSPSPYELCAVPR
The description is as above. The data set is classed as in vitro ADME. Conditions: human liver microsomes. How it is done:
as §1
For orientation: Liver microsomes are vesicles of endoplasmic reticulum, rich in cytochrome P450 enzymes.

For data set [5], the target named is T4, Cyp 450 3A4 (Homo sapiens, UniProt P08684).
T4 construct: tissue Cyprotex (CRO); host or cells: human liver microsomes
T4 sequence (P08684 whole entry): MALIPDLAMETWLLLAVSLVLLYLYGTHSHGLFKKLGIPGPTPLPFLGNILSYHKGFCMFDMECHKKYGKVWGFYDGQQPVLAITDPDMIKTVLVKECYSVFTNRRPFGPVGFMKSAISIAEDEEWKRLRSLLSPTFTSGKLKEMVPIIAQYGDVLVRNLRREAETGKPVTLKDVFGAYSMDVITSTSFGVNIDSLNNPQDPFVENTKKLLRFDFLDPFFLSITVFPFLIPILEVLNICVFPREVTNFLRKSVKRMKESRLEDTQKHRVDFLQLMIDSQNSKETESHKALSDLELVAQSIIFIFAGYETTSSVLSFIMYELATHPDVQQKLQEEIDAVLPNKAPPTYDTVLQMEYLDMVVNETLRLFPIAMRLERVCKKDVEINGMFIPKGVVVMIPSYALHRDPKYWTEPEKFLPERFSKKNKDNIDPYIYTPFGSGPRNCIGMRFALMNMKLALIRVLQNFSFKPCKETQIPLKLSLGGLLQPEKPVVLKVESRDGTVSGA
Described as above. The following applies: human liver microsomes. The data set is classed as in vitro ADME. How it is done:
as §1

Data set [6] concerns the target T5, Cyp 450 1A2 (Homo sapiens, UniProt P05177).
T5 construct: tissue Cyprotex (CRO); host or cells: human liver microsomes
T5 sequence (P05177 1-516): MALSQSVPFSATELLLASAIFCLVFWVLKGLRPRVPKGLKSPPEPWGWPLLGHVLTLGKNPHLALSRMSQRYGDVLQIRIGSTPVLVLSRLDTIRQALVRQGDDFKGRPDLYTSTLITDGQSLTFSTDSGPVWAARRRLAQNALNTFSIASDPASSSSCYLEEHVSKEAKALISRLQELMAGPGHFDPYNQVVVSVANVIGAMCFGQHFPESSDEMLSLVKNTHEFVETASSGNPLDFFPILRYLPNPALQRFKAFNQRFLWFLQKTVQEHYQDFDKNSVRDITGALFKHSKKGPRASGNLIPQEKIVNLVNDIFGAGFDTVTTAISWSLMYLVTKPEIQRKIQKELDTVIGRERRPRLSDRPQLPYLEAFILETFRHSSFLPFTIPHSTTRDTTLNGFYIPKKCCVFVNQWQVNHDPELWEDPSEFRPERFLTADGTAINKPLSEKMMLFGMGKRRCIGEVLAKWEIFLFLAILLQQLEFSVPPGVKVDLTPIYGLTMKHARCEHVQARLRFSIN
The description is as above. Conditions: human liver microsomes. The format is in vitro ADME. As to the method:
as §1

Data set [7] concerns the target T6, Cyp 450 2C19 (Homo sapiens, UniProt P33261).
T6 construct: tissue Cyprotex (CRO); host or cells: human liver microsomes
The data set is described as above. The following applies: human liver microsomes. The format is in vitro ADME. As to the method:
as §1

The subject of data set [8] is HEPG2 cells. Briefly: High-content cell toxicity screen in HEPG2 cells. The data set is classed as cell-based. Conditions: concentrations up to 50 μM. How it is done:
Effect on the cell or mitochondrial viability markers in HepG2 cells were tested for compounds up to 50 μM. HepG2 cells were plated on 96-well tissue culture treated black walled clear bottomed polystyrene plates at 0:3 _ 104 cells in 100_L per well. After 24 hr the cells were dosed with the test compound at a range of concentrations (see Assay Summary for details). At the end of the incubation period, the cells were loaded with the relevant dye/antibody for each cell health marker. The plates were then scanned using an automated fluorescent cellular imager, ArrayScanr VTI (Thermo Scientific Cellomics).

For data set [9] the following is noted: C57 mice, n = 3.
Description: Blood was centrifuged to yield plasma for quantification of parent compound using UPLC-MS/MS. […] Terminal blood samples (approximately 300 μL) were subsequently taken by cardiac puncture under CO2 terminal anaesthesia. Once collected, blood samples were transferred to tubes containing 28 μL of citrate as anti-coagulant and held on ice, for <30 minutes, before centrifugation to generate plasma. Plasma samples aliquots (50 μL) were treated with four volumes of acetonitrile, containing diclofenac as analytical internal standard. Precipitated proteins were removed by centrifugation and the supernatant was analysed by UPLC-MS/MS. Pharmacokinetic parameters were determined by non-compartmental analysis using the software package PK Solutions 2.0 from Summit Research Services.
The subject of data set [10] is COS-7 cells. The experiment in a line: Cytotoxicity assay (MTT) in COS-7 cells. The format is cell-based. Conditions: 50-fold multiple of EC50. How it is done: Cytotoxicity Assay: COS-7 cells were plated out on 96 well plates at a density of 8000 cells per well. […] After two days an MTT assay (Promega) was carried out according to the manufacturer’s instructions

The nature of data set [11]: Stability and intrinsic clearance in cryopreserved hepatocytes. The following applies: cynomolgus monkey.
Description: (§2) Reactions were terminated by addition of 100 μL of acetonitrile containing carbamazepine as the analytical internal standard. Samples were centrifuged and the supernatant fractions analysed by LC-MS/MS. The instrument responses (peak heights) were referenced to the zero time-point samples (as 100%) in order to determine the percentage of compound remaining. Ln plots of the % remaining, for each compound, were used to determine the half-life for the hepatocyte incubations.
Experiment in data set [12]: as above
The following applies: rat.
Description: as §2

Data set [13] concerns the target T7, mouse RAR alpha receptor (Mus musculus, UniProt P11416).
T7 sequence (P11416 183-417 limits assumed): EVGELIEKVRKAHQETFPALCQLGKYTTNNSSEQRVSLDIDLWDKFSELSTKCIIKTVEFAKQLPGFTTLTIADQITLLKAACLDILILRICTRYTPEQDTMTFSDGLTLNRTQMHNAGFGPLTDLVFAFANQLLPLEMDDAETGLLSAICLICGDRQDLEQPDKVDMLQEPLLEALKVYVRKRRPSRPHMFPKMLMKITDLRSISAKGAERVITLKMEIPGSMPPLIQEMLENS
The following applies: relative to the amplitude of the normalizing ATRA output.

Data set [14] is described as follows: Log D pH 7.4, octanol/buffer shake flask method.
Description: Briefly, octanol (pre-saturated with buffer) is added to the test compound and sonicated. Buffer at pH 7.4 (presaturated with octanol) is then added to the octanol. […] The system is mixed to allow distribution of the compound between the two phases.
Log D = Log (Coct / Caq ). Where: Coct = Concentration in octanol sample (corrected for dilution) and Caq = Concentration in aqueous sample (corrected for dilution)

Entries after “also recorded” stand apart in the source; their conditions may differ. Some results are limits rather than exact numbers.

T1 sequence (P41595 whole entry): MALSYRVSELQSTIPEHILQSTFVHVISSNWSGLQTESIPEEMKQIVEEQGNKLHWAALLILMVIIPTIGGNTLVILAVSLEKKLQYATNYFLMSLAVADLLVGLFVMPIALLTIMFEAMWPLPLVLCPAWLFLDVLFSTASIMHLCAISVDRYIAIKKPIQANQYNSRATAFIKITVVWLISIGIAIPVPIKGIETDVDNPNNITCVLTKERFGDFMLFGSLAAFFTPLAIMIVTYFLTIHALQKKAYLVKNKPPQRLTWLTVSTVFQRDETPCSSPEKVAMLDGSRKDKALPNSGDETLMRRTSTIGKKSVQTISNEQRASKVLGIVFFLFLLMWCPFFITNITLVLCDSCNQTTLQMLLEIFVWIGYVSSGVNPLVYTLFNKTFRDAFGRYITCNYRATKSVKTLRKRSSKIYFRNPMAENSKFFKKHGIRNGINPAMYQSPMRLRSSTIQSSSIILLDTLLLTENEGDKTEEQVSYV
T6 sequence (P33261 whole entry): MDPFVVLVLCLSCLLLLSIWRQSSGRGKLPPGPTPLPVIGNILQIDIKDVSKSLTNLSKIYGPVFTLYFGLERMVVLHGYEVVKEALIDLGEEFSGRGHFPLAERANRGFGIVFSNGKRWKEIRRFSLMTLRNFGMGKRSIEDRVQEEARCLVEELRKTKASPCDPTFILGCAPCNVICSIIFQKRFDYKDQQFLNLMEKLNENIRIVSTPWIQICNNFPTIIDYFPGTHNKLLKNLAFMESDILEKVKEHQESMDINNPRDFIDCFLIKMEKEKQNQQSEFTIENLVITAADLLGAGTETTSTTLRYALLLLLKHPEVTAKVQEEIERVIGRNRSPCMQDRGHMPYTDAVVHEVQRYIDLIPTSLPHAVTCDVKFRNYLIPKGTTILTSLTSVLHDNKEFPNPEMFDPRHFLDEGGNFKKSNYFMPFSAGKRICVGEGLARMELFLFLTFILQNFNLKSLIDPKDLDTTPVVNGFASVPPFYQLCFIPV

Turning to `CCOc1c(Cl)cc(C(=O)Nc2ccc(C(=O)O)c(C)c2)cc1OC(C)C` [Compound 56, 4-(3-Chloro-4-ethoxy-5-isopropoxybenzamido)-2-methylbenzoic acid], the inhibition at 10 µM in data set [1] came to 25%. Moreover, the bacterial cytotoxicity tests entry in data set [2] is given as “negative”. Further, the IC50 in [3], in data set [4], in [5], in data set [6] and in [7] was above 25 µM throughout. Also, the “effect on cell or mitochondrial viability markers” value in data set [8] is “no effect”. Besides, the “po F” value in data set [9] (1 mg/kg iv and po, 1 mg/kg) was determined as 84%. In addition, the “iv t1/2” value in data set [9] (1 mg/kg iv) is 1.9 h. The “po Cmax” value in [9] (1 mg/kg po) came to 2007 ng/mL. The “po Tmax” value in data set [9] (1 mg/kg po) turned out to be 0.25 h. Further, the “cytotoxicity in COS-7 cells” value in data set [10] is “no cytotoxicity; also recorded: not cytotoxic”. Further, the half-life at 1 μM in data set [11] was above 7.5 h; in data set [12], 5.95 h. Besides, the half-life at 30 μM in data set [11] and in data set [12] was above 7.5 h in each case. Moreover, the figures for the hepatocyte CLint at 1 μM in data set [11] and in data set [12] were below 3 µL/min/1e6 cells and 4 µL/min/1e6 cells, respectively. For the same compound, the hepatocyte CLint at 30 μM in data set [11] and in data set [12] was below 3 µL/min/1e6 cells each time. The “RARα agonist type (partial / full agonist)” value in data set [13] was “full agonist”. The same compound showed a logD in data set [14] of 1.8.

As a reminder, the inhibition is the drop in the measured response relative to a control, in per cent. By IC50 is commonly meant the concentration that inhibits the measured activity by half. The term half-life denotes how long it takes for the measured level to halve. As a reminder, the hepatocyte CLint is the capacity of the preparation to metabolise the compound, expressed as a volume cleared per time. As usually defined, the logD is the decadic logarithm of the distribution of all forms, ionised or not, between an organic phase and buffer at a given pH.

The values above are taken from paper PMC5823845 (Bioorganic & Medicinal Chemistry, 2018).
